Data reported in PMC5992482 (Molecular Therapy. Nucleic Acids, 2018).

Molecular target: T1, Nicotinamide N-methyltransferase (NNMT) (Homo sapiens, UniProt P40261)
T1 sequence (P40261 1-264): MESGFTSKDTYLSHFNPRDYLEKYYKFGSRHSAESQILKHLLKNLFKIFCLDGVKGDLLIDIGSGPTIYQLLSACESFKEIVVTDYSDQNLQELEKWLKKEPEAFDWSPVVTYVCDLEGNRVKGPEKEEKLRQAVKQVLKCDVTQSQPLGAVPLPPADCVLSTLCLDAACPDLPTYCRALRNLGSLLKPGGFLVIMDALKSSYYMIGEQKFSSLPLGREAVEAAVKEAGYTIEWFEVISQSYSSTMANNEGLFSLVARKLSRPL
Experiment: in vitro enzyme activity assay with purified NNMT
Type: biochemical

C=C(C)[C@@]12O[C@@]3(/C=C/C=C/CCCCC)O[C@@H]1[C@@H]1[C@@H]4O[C@]4(CO)[C@@H](O)[C@]4(O)C(=O)C(C)=C[C@H]4[C@@]1(O3)[C@H](C)[C@H]2OC(C)=O [YD, yuanhuadine] was tested, and the IC50 was 400 nM.
